In paper PMC10303920, “Competition between skin antimicrobial peptides and commensal bacteria in type 2 inflammation enables survival of S. aureus” (Cell reports, 2023):
No end group written: not given here.

How the values were obtained:
S. aureus (ATCC35556) [1] = assay: Survival of S. aureus on mouse skin after topical steroid; assay type: in vivo, Balb/c WT mice; conditions: 0.1% triamcinolone topical at 24 and 32 h after S. aureus, read at 48 h; Figure 2L
Method: (§1) Back skin of Balb/c WT mice (8 weeks, female) were shaved and treated with MC903 as described above. After decontaminating the skin with alcohol swab twice, S. aureus (ATCC35556, 1 × 10^6 CFU) were applied with a TSB agar disc and whole back skin was covered with Tegaderm wound dressing film for 24 h. Tegaderm and the TSB disc were removed, and then 0.1% Triamcinolone (Perrigo) or Vaseline (50μg) were applied twice on back skin at 24 and 32 h after S. aureus were applied. Skin swab and biopsy was ob tained to measure S. aureus survival and immune response of the skin, respectively, at 48 h after bacteria application.
Survival of S. aureus and CoNS were measured on Baird-Parker agar for S. aureus or mannitol salt agar with egg yolk for total Staphylococcus species using easySpiral automatic diluter plater with exponential mode or circle mode and automatic colony counter (Interscience Inc., France). To determine total CoNS survival, CFUs on mannitol salt agar were subtracted by CFUs on Baird-Parker agar. To distinguish ShA9-WT and ShA9-ΔLanti mutant, CoNS colonies with pink color without halo were randomly picked from mannitol salt agar plate and conducted colony PCR with gene specific primers for ShA9-lantibiotic-α (key resources table).

[2] = system: Il17a, Il4, Il13, Camp, Defb14, Defb4 expression; assay: qPCR of cytokine and AMP genes in mouse skin after topical steroid; assay type: in vivo, Balb/c WT mice; conditions: topical triamcinolone
Method: as §1
To determine expression of mRNA for Il4, Il13, Il17a, Tslp, Defb4, […] or Camp, 6mm punch biopsy was obtained from the mouse back skin. Skin biopsy was stored in 1mL of RNAlater solution at −80°C. Total RNA was extracted with PureLink RNA extraction kit (ThermoScientific Fisher) and one μg of total RNA was reversely transcribed with VERSO cDNA synthesis kit (ThermoScientific Fisher). Predeveloped qPCR assay primer sets (IDT oligo, listed in key resources table) were used for analyzing the expressions of these genes. The mRNA expression of each gene was evaluated by qPCR and normalized to GAPDH expression (key resources table).

ShA9-WT and ShA9-ΔLanti = assay: Growth inhibition of ShA9-WT and ShA9-ΔLanti by human and murine AMPs (OD600); assay type: cell-based, Staphylococcus hominis; conditions: 90% RPMI/10% TSB, 30°C, 24 h, mean of duplicate technical replicates, Figure 4E
Method: Staphylococcus strains collected from normal skin from healthy subjects or lesional skin from AD patients were cultured in TSB overnight. Bacteria were washed with PBS and resuspended to 90% RPMI media and 10% TSB. Bacteria (1 × 10^5 CFU/mL) were incu bated with or without human AMPs (LL-37, hBD-2, hBD-3) or mouse cathelin-related AMP (CRAMP) in 90% RPMI media and 10% TSB (100 μL) in each well of a 96-well plate at 30°C for 24 h. Bacterial growth was assessed by measuring OD600. Minimal inhibitory concentration was defined as the lowest concentration which prevent visible bacterial growth (<5% of OD600 value of the con trol well).

S. aureus (ATCC35556) [3] = assay: Survival of S. aureus on mouse skin in inflammation models; assay type: in vivo, Balb/c mice
Source text: All experiments involving live animals were done with the approval of the Institutional Animal Care and Use Guidelines of the University of California, San Diego (Protocol number: S09074). To investigate influences of distinct type of skin inflammation on the microbial community on the skin surface, we employed Th2 and Th17 inflammation models using mixed sex of Il4ra^−/− Balb/c (Jackson Laboratory, ME), Camp^−/− Balb/c,[4] Flg^ft/ft Balb/c or WT Balb/c mice (Jackson Laboratory) (6–8 weeks). Mice were housed under a specific pathogen-free condition with 12hr light/12hr dark cycle at 20–22°C and 30–70% humidity. Mice were randomly selected, the back skin was shaved, treated with depilatory cream, rinsed with water, cleaned with alcohol swab twice. To induce Th2 inflammation, MC903 (50μL of 90μM in ethanol) was applied to the back skin of WT, Il4ra^−/− or Camp^−/− mice every day for 14 days. Control mice received equal volume of ethanol. Alternatively, a sterile patch (2 × 2cm) with OVA solution (100 μg/100 μL PBS) or PBS was placed on tape-stripped dorsal skin of Flg^ft/ft Balb/c mice (6–8 weeks, mixed sex) and covered with Tegaderm wound dressing film for 8 days (the patch was replaced every 2 days). Mice received 3 times of 8-day OVA exposures by 2-week intervals. […] The dorsal skin was disinfected with alcohol swabs twice, applied with a 6-mm TSB agar disc containing 1 × 10^6 CFU of S. aureus (ATCC35556), and covered with Tegaderm wound dressing film for initial 24 h for quantitative bacterial application. […]
Bacteria were cultured in tryptic soy broth (TSB) at 37°C overnight, washed with PBS, and re-suspended in PBS at 1 × 10^6 CFU/5μL. […] The entire dorsal skin was then covered with wound dressing film for quantitative bacterial application and to avoid contamination.[18] […]
Survival of S. aureus and CoNS were measured on Baird-Parker agar for S. aureus or mannitol salt agar with egg yolk for total Staphylococcus species using easySpiral automatic diluter plater with exponential mode or circle mode and automatic colony counter (Interscience Inc., France). […]

[4] = system: AMP gene expression at wound edge; assay: AMP response to partial-thickness skin wounds of mice treated by MC903; assay type: in vivo, Balb/c mice; conditions: MC903 or vehicle for 14 days, scratched by 18 gauge needle, biopsy at wound edge after 48 hours; Figure S3
Source text: All experiments involving live animals were done with the approval of the Institutional Animal Care and Use Guidelines of the University of California, San Diego (Protocol number: S09074). To investigate influences of distinct type of skin inflammation on the microbial community on the skin surface, we employed Th2 and Th17 inflammation models using mixed sex of Il4ra^−/− Balb/c (Jackson Laboratory, ME), Camp^−/− Balb/c,[4] Flg^ft/ft Balb/c or WT Balb/c mice (Jackson Laboratory) (6–8 weeks). Mice were housed under a specific pathogen-free condition with 12hr light/12hr dark cycle at 20–22°C and 30–70% humidity. Mice were randomly selected, the back skin was shaved, treated with depilatory cream, rinsed with water, cleaned with alcohol swab twice. To induce Th2 inflammation, MC903 (50μL of 90μM in ethanol) was applied to the back skin of WT, Il4ra^−/− or Camp^−/− mice every day for 14 days. […] The dorsal skin was disinfected with alcohol swabs twice, applied with a 6-mm TSB agar disc containing 1 × 10^6 CFU of S. aureus (ATCC35556), and covered with Tegaderm wound dressing film for initial 24 h for quantitative bacterial application. […] The mRNA expression of each gene was evaluated by qPCR and normalized to GAPDH expression (key resources table). page 4: Figure S3. […] P-value (*P<0.05 and **P<0.01) was calculated by two-tailed unpaired parametric t-test. […]

C[C@]12C=CC(=O)C=C1CC[C@H]1[C@@H]3C[C@@H](O)[C@](O)(C(=O)CO)[C@@]3(C)C[C@H](O)[C@@]12F [triamcinolone]
Survival of S. aureus on MC903-pretreated mouse skin (S. aureus (ATCC35556) [1]): decreased survival of S. aureus
Il17a expression, healthy skin after S. aureus exposure ([2]; no MC903, Figure 2F): decreased
Camp expression, healthy skin after S. aureus exposure ([2]; no MC903, Figure 2I): decreased
Defb14 expression, healthy skin after S. aureus exposure ([2]; no MC903, Figure 2J): decreased
Il4 expression, skin with Th2 inflammation (MC903 and S. aureus) ([2]; Figure 2G): decreased
Il13 expression, skin with Th2 inflammation (MC903 and S. aureus) ([2]; Figure 2H): decreased
Camp expression, skin with Th2 inflammation (MC903 and S. aureus) ([2]; Figure 2I): increased
Defb14 expression, skin with Th2 inflammation (MC903 and S. aureus) ([2]; Figure 2J): increased
Defb4 expression, skin with Th2 inflammation (MC903 and S. aureus) ([2]; Figure 2K): increased

CRAMP (GLL-33)
Sensitivity of ShA9-WT to the AMP compared with ShA9-ΔLanti (growth inhibition) (ShA9-WT and ShA9-ΔLanti): more sensitive

CC(C)Cn1cnc2c(N)nc3ccccc3c21 [imiquimod]
Protection against S. aureus on imiquimod-treated skin (S. aureus (ATCC35556) [3]; Flg^ft/ft mice, 5% imiquimod cream daily for 7 days, S. aureus for 48 hours, Figure S6): enhanced protection against S. aureus

C=C1/C(=C\C=C2/CCC[C@]3(C)[C@@H]([C@H](C)/C=C/[C@@H](O)C4CC4)CC[C@@H]23)C[C@@H](O)C[C@@H]1O [MC903]
S. aureus survival on the skin after MC903 pretreatment relative to untreated mice (S. aureus (ATCC35556) [3]; WT Balb/c mice, MC903 50 μL of 90 μM daily for 14 days, S. aureus 1 × 10^6 CFU for 48 h, Figure S1G): increased
AMP response to skin wounding after MC903 [4]: suppressed

human beta-defensin 2 [hBD-2]
Sensitivity of ShA9-WT to the AMP compared with ShA9-ΔLanti (growth inhibition) (ShA9-WT and ShA9-ΔLanti): more sensitive

human beta-defensin 3 (GIINTLQKYYCRVRGGRCAVLSCLPKEEQIGKCSTRGRKCCRRKK; ends and bridges not checked; cysteine pairing not given here; UniProt P81534 23-67, looked up) [hBD-3, human β-defensin, synthetic AMP (Peptide International)]
Sensitivity of ShA9-WT to the AMP compared with ShA9-ΔLanti (growth inhibition) (ShA9-WT and ShA9-ΔLanti): more sensitive

B1: ovalbumin (protein, UniProt P01012 2-386, looked up)
Ovalbumin: GSIGAASMEFCFDVFKELKVHHANENIFYCPIAIMSALAMVYLGAKDSTRTQINKVVRFDKLPGFGDSIEAQCGTSVNVHSSLRDILNQITKPNDVYSFSLASRLYAEERYPILPEYLQCVKELYRGGLEPINFQTAADQARELINSWVESQTNGIIRNVLQPSSVDSQTAMVLVNAIVFKGLWEKAFKDEDTQAMPFRVTEQESKPVQMMYQIGLFRVASMASEKMKILELPFASGTMSMLVLLPDEVSGLEQLESIINFEKLTEWTSSNVMEERKIKVYLPRMKMEEKYNLTSVLMAMGITDVFSSSANLSGISSAESLKISQAVHAAHAEINEAGREVVGSAEAGVDAASVSEEFRADHPFLFCIKHIATNAVLFFGRCVSP
notes: ovalbumin used for epicutaneous sensitization to induce Th2 inflammation
S. aureus survival on the skin after OVA sensitization relative to untreated mice (S. aureus (ATCC35556) [3]; Flg^ft/ft Balb/c mice, 100 μg OVA in 100 μL PBS, 3 exposure cycles, S. aureus 1 × 10^6 CFU for 48 h, Figure S1M): increased colonization by S. aureus
